Structures are written as SMILES.

Usually IC50 stands for the concentration at which inhibition is half-maximal. High values mean weaker potency, low ones greater potency.

One experiment has as its target T1, stromelysin (MMP-3) (Homo sapiens, UniProt P08254).
T1 construct: enzymatic activity of the catalytic domains of human stromelysin and of neutrophil collagenase; made in house
The experiment is described as follows: Enzyme inhibition of the catalytic domain of human stromelysin (fluorogenic substrate). Type of experiment: biochemical. The following applies: 15 min preincubation, pH=6.5, fluorescence 328 nm (ex)/393 nm (em). How it is done: (§1) Preparation and determination of the enzymatic activity of the catalytic domains of human stromelysin and of neutrophil collagenase.
(§2) The enzymes stromelysin (MMP-3) and neutrophil collagenase (MMP-8) were prepared according to Ye et al. (Biochemistry; 31 (1992) pages 11231-11235). To measure the enzyme activity or the enzyme inhibitor action, 70 μl of buffer solution and 10 μl of enzyme solution are incubated for 15 min with 10 μl of a 10% strength (v/v) aqueous dimethyl sulfoxide solution, which optionally contains the enzyme inhibitor. After addition of 10 μl of a 10% strength (v/v) aqueous dimethyl sulfoxide solution which contains 1 mil/L of the substrates, the enzyme reaction is monitored by fluorescence spectroscopy (328 nm (ex)/393 nm(em)). The enzyme activity is shown as the extinction increase/min. The IC50 values listed in Table 2 are determined as those inhibitor concentrations which in each case lead to a 50% inhibition of the enzyme.
(§3) The buffer solution contains 0.05% Brij (Sigma, Deisenhofen, Germany) and also 0.1 mol/L tris/HCl, 0.1 mol/L NaCl, 0.01 mol/L CaCl2 and 0.1 mol/L piperazine-N,N′-bis(2-ethanesulfonic acid) (pH=6.5). The enzyme solution contains 5 μg/ml of one of the enzyme domains prepared according to Ye et al. The substrate solution contains 1 mil/L of the fluorogenic substrate (7-methoxycoumarin-4-yl)acetyl-Pro-Leu-Gly-Leu-3-(2′,4′-dinitrophenyl)-L-2,3-diaminopropionyl-Ala-Arg-NH2 (Bachem, Heidelberg, Germany).

Experiment [1] concerns the target T2, neutrophil collagenase (MMP-8) (Homo sapiens, UniProt P22894).
T2 construct: enzymatic activity of the catalytic domains of human stromelysin and of neutrophil collagenase; made in house
Briefly: Enzyme inhibition of the catalytic domain of neutrophil collagenase (fluorogenic substrate). Conditions: 15 min preincubation, pH=6.5, fluorescence 328 nm (ex)/393 nm (em). Type of experiment: biochemical. How it is done: as §1, §2, §3

T2 sequence (P22894 100-262 limits assumed): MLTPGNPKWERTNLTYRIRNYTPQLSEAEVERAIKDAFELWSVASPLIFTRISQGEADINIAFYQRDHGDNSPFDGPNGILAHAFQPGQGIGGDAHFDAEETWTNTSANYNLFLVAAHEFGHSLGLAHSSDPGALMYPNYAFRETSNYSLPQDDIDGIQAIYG
T1 sequence (P08254 100-272 limits assumed): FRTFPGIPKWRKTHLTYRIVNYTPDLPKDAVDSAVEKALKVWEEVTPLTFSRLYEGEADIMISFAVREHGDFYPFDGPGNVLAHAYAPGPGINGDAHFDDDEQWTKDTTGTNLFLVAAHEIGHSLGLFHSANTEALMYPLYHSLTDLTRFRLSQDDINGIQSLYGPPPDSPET

Turning to `O=C(O)C1CC1C(=O)NCCC[C@H](NS(=O)(=O)c1ccc(-c2ccc(Cl)cc2)cc1)C(=O)O` (stereo partly drawn) [Example 64], the results for the IC50 (on stromelysin (MMP-3); in experiment [1]) were 30 nM and 2 nM, respectively.

As to `O=C(NCCC[C@H](NS(=O)(=O)c1ccc(-c2ccc(Cl)cc2)cc1)C(=O)O)C1CCC1` [Example 66], the IC50 turned out to be 10 nM at stromelysin (MMP-3) and 2 nM in experiment [1].

In the case of `CC1CC1C(=O)NCCC[C@H](NS(=O)(=O)c1ccc(-c2ccc(Cl)cc2)cc1)C(=O)O` (stereo partly drawn) [Example 69], the IC50 at stromelysin (MMP-3) was determined as 4 nM; in experiment [1] it was 2 nM.

For `CC1(C)C(C(=O)NCCC[C@H](NS(=O)(=O)c2ccc(-c3ccc(Cl)cc3)cc2)C(=O)O)C1(C)C` [Example 70], the half-maximal inhibitory concentration (IC50) at stromelysin (MMP-3) is 10 nM; in experiment [1], 3 nM.

As for `O=C(NCCC[C@H](NS(=O)(=O)c1ccc(-c2ccc(Cl)cc2)cc1)C(=O)O)c1ccc(F)cc1` [Example 71], the IC50 at stromelysin (MMP-3) worked out at 10 nM; in experiment [1] it was 3 nM.

Consider `O=C(NCCC[C@H](NS(=O)(=O)c1ccc(-c2ccc(Cl)cc2)cc1)C(=O)O)c1ccc(C(F)(F)F)cc1` [Example 72], for which the IC50 against stromelysin (MMP-3) was 20 nM; in experiment [1], 6 nM.

As to `CC(=O)Oc1ccccc1C(=O)NCCC[C@H](NS(=O)(=O)c1ccc(-c2ccc(Cl)cc2)cc1)C(=O)O` [Example 73], the values for the IC50 (against stromelysin (MMP-3); in experiment [1]) were 4 nM and 2 nM, respectively.

With `O=C(NCCC[C@H](NS(=O)(=O)c1ccc(-c2ccc(Cl)cc2)cc1)C(=O)O)c1ccccc1O` [Example 74], the results for the IC50 (against stromelysin (MMP-3); in experiment [1]) were 10 nM and 3 nM, respectively.

Take `NC(=O)C1(C(=O)NCCC[C@H](NS(=O)(=O)c2ccc(-c3ccc(Cl)cc3)cc2)C(=O)O)CC1` [Example 75]: the IC50 against stromelysin (MMP-3) came to 20 nM; in experiment [1], 4 nM.

For the molecule `O=C(O)c1ccccc1S(=O)(=O)NCCC[C@H](NS(=O)(=O)c1ccc(-c2ccc(Cl)cc2)cc1)C(=O)O` [Example 76], the IC50 (against stromelysin (MMP-3); in experiment [1]) was 40 nM each time.

Turning to `C[C@@H]1NC(=O)N(CCC[C@H](NS(=O)(=O)c2ccc(-c3ccc(Cl)cc3)cc2)C(=O)O)C1=O` [Example 77], the half-maximal inhibitory concentration (IC50) came out at 10 nM on stromelysin (MMP-3) and 2 nM in experiment [1].

Regarding `O=C(CC[C@H](C(=O)O)c1ccccc1)NCCC[C@H](NS(=O)(=O)c1ccc(-c2ccc(Cl)cc2)cc1)C(=O)O` [Example 79], the IC50 came to 5 nM on stromelysin (MMP-3) and 2 nM in experiment [1].

Turning to `O=C(CC[C@@H](C(=O)O)c1ccccc1)NCCC[C@H](NS(=O)(=O)c1ccc(-c2ccc(Cl)cc2)cc1)C(=O)O` [Example 80], the half-maximal inhibitory concentration (IC50) against stromelysin (MMP-3) was 10 nM; in experiment [1], 3 nM.

Turning to `CC(C)(CC(=O)O)CC(=O)NCCC[C@H](NS(=O)(=O)c1ccc(-c2ccc(Cl)cc2)cc1)C(=O)O` [Example 81], the values for the IC50 (on stromelysin (MMP-3); in experiment [1]) were 30 nM and 3 nM, respectively.

Regarding `CCC(=O)NCCC[C@H](NS(=O)(=O)c1ccc(-c2ccc(Cl)cc2)cc1)C(=O)O` [Example 82], the IC50 on stromelysin (MMP-3) stood at 20 nM; in experiment [1] it was 4 nM.

In the case of `O=C(NCCC[C@H](NS(=O)(=O)c1ccc(-c2ccc(Cl)cc2)cc1)C(=O)O)c1ccccc1Cl` [Example 83], the IC50 came to 7 nM against stromelysin (MMP-3) and 3 nM in experiment [1].

`O=C(NCCC[C@H](NS(=O)(=O)c1ccc(-c2ccc(Cl)cc2)cc1)C(=O)O)C1CSCN1` (stereo partly drawn) [Example 84]: the IC50 turned out to be 20 nM on stromelysin (MMP-3) and 4 nM in experiment [1].

For `N#Cc1ccc(C(=O)NCCC[C@H](NS(=O)(=O)c2ccc(-c3ccc(Cl)cc3)cc2)C(=O)O)cc1` [Example 85], the IC50 against stromelysin (MMP-3) stood at 20 nM; in experiment [1], 5 nM.

For the molecule `O=C(NCCC[C@H](NS(=O)(=O)c1ccc(-c2ccc(Cl)cc2)cc1)C(=O)O)c1ccc(F)cc1F` [Example 86], the concentration for half-maximal inhibition (IC50) against stromelysin (MMP-3) worked out at 20 nM; in experiment [1] it was 4 nM.

Take `O=C(NCCC[C@H](NS(=O)(=O)c1ccc(-c2ccc(Cl)cc2)cc1)C(=O)O)c1ccc(F)c(F)c1` [Example 87]: the IC50 at stromelysin (MMP-3) worked out at 30 nM; in experiment [1] it was 10 nM.

For `O=C(NCCC[C@H](NS(=O)(=O)c1ccc(-c2ccc(Cl)cc2)cc1)C(=O)O)c1ccccc1F` [Example 88], the IC50 on stromelysin (MMP-3) came to 10 nM; in experiment [1], 3 nM.

On to `O=C(Cc1ccc(Cl)cc1)NCCC[C@H](NS(=O)(=O)c1ccc(-c2ccc(Cl)cc2)cc1)C(=O)O` [Example 89], for which the IC50 against stromelysin (MMP-3) amounted to 30 nM; in experiment [1] it was 10 nM.

`O=C(NCCC[C@H](NS(=O)(=O)c1ccc(-c2ccc(Cl)cc2)cc1)C(=O)O)c1ccc(Cl)cc1` [Example 90]: the figures for the IC50 (against stromelysin (MMP-3); in experiment [1]) were 20 nM and 5 nM, respectively.

As for `O=C(NCCC[C@H](NS(=O)(=O)c1ccc(-c2ccc(Cl)cc2)cc1)C(=O)O)c1cccc(Cl)c1` [Example 91], the results for the IC50 (on stromelysin (MMP-3); in experiment [1]) were 30 nM and 5 nM, respectively.

Turning to `O=C(NCCC[C@H](NS(=O)(=O)c1ccc(-c2ccc(Cl)cc2)cc1)C(=O)O)c1ccc(Cl)c(Cl)c1` [Example 92], the IC50 against stromelysin (MMP-3) amounted to 40 nM; in experiment [1], 20 nM.

Turning to `O=C(NCCC[C@H](NS(=O)(=O)c1ccc(-c2ccc(Cl)cc2)cc1)C(=O)O)c1cc(F)cc(F)c1` [Example 93], the IC50 on stromelysin (MMP-3) is 20 nM; in experiment [1], 4 nM.

Take `O=C(NCCC[C@H](NS(=O)(=O)c1ccc(-c2ccc(Cl)cc2)cc1)C(=O)O)c1cc(F)ccc1F` [Example 94]: the figures for the 50% inhibitory concentration (IC50) (on stromelysin (MMP-3); in experiment [1]) were 30 nM and 5 nM, respectively.

As for `O=C(NCCC[C@H](NS(=O)(=O)c1ccc(-c2ccc(Cl)cc2)cc1)C(=O)O)c1cccc(F)c1` [Example 95], the figures for the IC50 (against stromelysin (MMP-3); in experiment [1]) were 20 nM and 4 nM, respectively.

Take `O=C(NCCC[C@H](NS(=O)(=O)c1ccc(-c2ccc(Cl)cc2)cc1)C(=O)O)C1Cc2ccccc2N1` (stereo partly drawn) [Example 96]: the IC50 at stromelysin (MMP-3) came to 20 nM; in experiment [1], 6 nM.

`O=C(NCCC[C@H](NS(=O)(=O)c1ccc(-c2ccc(Cl)cc2)cc1)C(=O)O)c1cccc(F)c1F` [Example 97]: the IC50 at stromelysin (MMP-3) was determined as 20 nM; in experiment [1], 4 nM.

As to `COCC(=O)NCCC[C@H](NS(=O)(=O)c1ccc(-c2ccc(Cl)cc2)cc1)C(=O)O` [Example 98], the IC50 came out at 10 nM against stromelysin (MMP-3) and 3 nM in experiment [1].

For `O=C(NCCC[C@H](NS(=O)(=O)c1ccc(-c2ccc(Cl)cc2)cc1)C(=O)O)c1ccco1` [Example 99], the IC50 at stromelysin (MMP-3) amounted to 5 nM; in experiment [1], 2 nM.

For the molecule `Cc1ccsc1C(=O)NCCC[C@H](NS(=O)(=O)c1ccc(-c2ccc(Cl)cc2)cc1)C(=O)O` [Example 100], the IC50 on stromelysin (MMP-3) was found to be 4 nM; in experiment [1] it was 2 nM.

Consider `O=C(/C=C/c1ccccc1)NCCC[C@H](NS(=O)(=O)c1ccc(-c2ccc(Cl)cc2)cc1)C(=O)O` [Example 101], for which the IC50 turned out to be 40 nM at stromelysin (MMP-3) and 10 nM in experiment [1].

Regarding `O=C(NCCC[C@H](NS(=O)(=O)c1ccc(-c2ccc(Cl)cc2)cc1)C(=O)O)c1ccc(O)cc1` [Example 102], the IC50 against stromelysin (MMP-3) came to 20 nM; in experiment [1] it was 5 nM.

Consider `O=C(NCCC[C@H](NS(=O)(=O)c1ccc(-c2ccc(Cl)cc2)cc1)C(=O)O)c1ccc(Cc2ccccc2)cc1` [Example 103], for which the IC50 against stromelysin (MMP-3) is 70 nM; in experiment [1], 60 nM.

As for `COc1ccc(C(=O)NCCC[C@H](NS(=O)(=O)c2ccc(-c3ccc(Cl)cc3)cc2)C(=O)O)c(OC)c1` [Example 104], the IC50 against stromelysin (MMP-3) stood at 30 nM; in experiment [1], 8 nM.

As to `O=C(NCCC[C@H](NS(=O)(=O)c1ccc(-c2ccc(Cl)cc2)cc1)C(=O)O)c1ccc(OC(F)(F)F)cc1` [Example 105], the IC50 against stromelysin (MMP-3) turned out to be 40 nM; in experiment [1], 10 nM.

In the case of `CCCCOc1ccc(C(=O)NCCC[C@H](NS(=O)(=O)c2ccc(-c3ccc(Cl)cc3)cc2)C(=O)O)cc1` [Example 106], the IC50 against stromelysin (MMP-3) was determined as 60 nM; in experiment [1] it was 30 nM.

With `Nc1ccc(C(=O)NCCC[C@H](NS(=O)(=O)c2ccc(-c3ccc(Cl)cc3)cc2)C(=O)O)cc1` [Example 107], the figures for the IC50 (at stromelysin (MMP-3); in experiment [1]) were 10 nM and 4 nM, respectively.

As for `O=C(CC1CCCCC1)NCCC[C@H](NS(=O)(=O)c1ccc(-c2ccc(Cl)cc2)cc1)C(=O)O` [Example 108], the IC50 against stromelysin (MMP-3) was determined as 20 nM; in experiment [1], 5 nM.

With `O=C(NCCC[C@H](NS(=O)(=O)c1ccc(-c2ccc(Cl)cc2)cc1)C(=O)O)c1ccc(C(F)(F)F)cc1F` [Example 109], the IC50 turned out to be 20 nM at stromelysin (MMP-3) and 7 nM in experiment [1].

Consider `O=C(NCCC[C@H](NS(=O)(=O)c1ccc(-c2ccc(Cl)cc2)cc1)C(=O)O)c1ccc2ccccc2c1` [Example 110], for which the IC50 came out at 40 nM against stromelysin (MMP-3) and 20 nM in experiment [1].

For the molecule `O=C(Cc1cccs1)NCCC[C@H](NS(=O)(=O)c1ccc(-c2ccc(Cl)cc2)cc1)C(=O)O` [Example 111], the IC50 stood at 10 nM against stromelysin (MMP-3) and 3 nM in experiment [1].

`O=C(O)[C@H](CCCN(Cc1ccccc1)C(=O)C1CC1)NS(=O)(=O)c1ccc(-c2ccc(Cl)cc2)cc1` [Example 113]: the IC50 at stromelysin (MMP-3) worked out at 5 nM; in experiment [1], 3 nM.

The record behind these values is US6355673B1, “Substituted diaminocarboxylic acids” (Aventis Pharma Deutschland GmbH, priority 1997, dated 2002).
